Test results as given in article PMC5652740, “Inhibition of HIV-1 infection in humanized mice and metabolic stability of protein phosphatase-1-targeting small molecule 1E7-03” (Oncotarget, 2017).
Several values for one entry are separate records, joined by “and”; a condition that tells them apart may be missing. Equal values may be shown once. Read-outs that look alike come from different tables or passages of the source.

Key:
[1] = 1E7-03 degradation in mouse plasma; type: in vitro ADME; settings: for % of 1E7-03 degraded: mouse plasma, 10 μM
Protocol: A 10 μl aliquots from each sample were loaded to a LC-20AD nano HPLC system (Shimadzu Corporation, Columbia, MD, USA) coupled to LTQ XL Orbitrap mass spectrometer (Thermo Fisher Scientific) with the installed Xcalibur software (version 2.0.7, Thermo Fisher Scientific). Liquid chromatography was carried out on an in-house made nano-HPLC column (Polymicro Technologies Inc., Phoenix, AZ, USA) packed with reverse phase PolySulfoethyl A, 5μM, 200 Å (PolyLC Inc., Columbia, MD, USA). Mobile phase A was 0.1% formic acid in water and mobile phase B - 0.1% formic acid in acetonitrile. The elution was performed at a flow rate of 600 nl/min over 40 min using a multisegment linear gradient of mobile phase B as follows: 0–6.02 min, 1% B; 6.02–6.11 min, 1–2% B; 6.11–20 min, 2−80% B; 20–25 min, 80% B; 25–30 min, 80–85% B; 30–31 min, […]; 31–40 min, 2% B (v/v). The Orbitrap was operated under data-dependent acquisition mode. The spray voltage, capillary temperature and capillary voltage were set to 2.0 kV, 200 °C, and 39.5 V, respectively. Full-scan mass spectra were acquired in Orbitrap over 150−1500 m/z with a resolution of 30 000, followed by MS^n scans by CID activation mode. The precursor ions were fragmented with collision energy of 18 with activation Q of 0.25 and an activation time of 30 ms. Dynamic exclusion was enabled with a repeat count of 2, a repeat duration of 15 s, exclusion duration of 20 s, an exclusion list size of 50. The mass spectrometer was also operated in NL scan of m/z 18.01, 45.05, 71.03 and 72.02 and MRM mode. The MRM transitions were controlled by a segmented program in order to short the scan cycle and increase sensitivity.
1E7-03 dissolved in DMSO (10 mM stock solution) was mixed with mouse plasma (Sigma-Aldrich), guinea pig plasma (Sigma-Aldrich), ferret plasma (BioreclamationIVT), monkey plasma (courtesy of Binhua Ling, PhD, Tulane University) and human plasma (collected from heathy volunteer by the Center for Sickle Cell Disease at Howard University) to the final concentration of 10 μM and incubated at 37°C. Aliquots were collected at different time points for up to 24 hrs. The resulting sample (60 μl) was mixed with 240 μl of cold acetone, vortexed for 2 min, kept at –20°C for 30 min, and then the precipitated protein was removed by centrifugation at 13,000 × g for 5 min. The supernatant was transferred to a clean test tube and evaporated to dryness using a SpeedVac concentrator. The residue reconstituted in 60 μl of acetonitrile for LC/FT-MS analysis. All experiments were run parallel in triplicates.

[2] = Stability in human liver microsomes; type: in vitro ADME; settings: 1 hr; for % of Total (Liver microsomes, Human): 10 μM 1E7-03, 37°C, 1E7-03 remaining and DP1, DP3 formed
Protocol: (§1) The metabolic stability of 1E7-03 was also investigated using a pool of human and mouse liver microsomes (HMS9PL, MSS9PL, Thermo Scientific) following manufacturer's instructions. In brief, incubations were conducted at 37 ± 1°C in mixtures containing 5 μl of human or mouse liver microsomes (20 mg/ml), 183 μl of potassium phosphate buffer (pH 7.4, 100 mM) and 2 μl of 1E7-03 (10 mM sock solution of 1E7-03 in DMSO was diluted into 1 mM by PBS). The mixture was pre-incubated for 5 min, then initiated the reactions with the addition of 10 μl 20 mM NADPH (Sigma Aldrich). The reactions were terminated after 1 hr incubation by adding 800 μl cold acetone. The mixture was kept at 4°C for 30 min, and the precipitated protein was removed by centrifugation (13, 000 g for 10 min at 4°C). A 250 μl aliquot of supernatant was transferred to a clean test tube and evaporated to dryness using a SpeedVac concentrator. The residue was reconstituted in 50 μl of acetonitrile with 0.1% FA for LC/FT-MS analysis.

[3] = Stability in mouse liver microsomes; type: in vitro ADME; settings: 10 μM 1E7-03, 37°C, 1 hr; 1E7-03 remaining and DP1, DP3 formed
Protocol: as §1

[4] = tested on: HIV-1-LUC-G; assay: Single round HIV-1 replication, luciferase readout in CEM T cells; type: cell-based; settings: Human immunodeficiency virus 1, T-cell
Protocol: CEM T cells were infected with VSVG-pseudotyped pNL4-3.Luc.R-E-virus (HIV-1-LUC-G) prepared as previously described and cultured in 96-well white plates ( 1.25 × 10^6 cells/ml, 100 μl/well) at 37°C and 5% CO2. The cells were treated with serial dilutions of the compounds or vehicle (DMSO) and incubated overnight. At 24 hrs post infection, 100 μl of reconstituted luciferase buffer (Luclite Kit, Perkin Elmer) was added to each well, incubated for 10 min and luminescence was measured using Glo-Max Microplate Multimode reader (Promega).

[5] = molecular target: T1, QuantiLum Recombinant Luciferase (Photinus pyralis, UniProt P08659); assay: Purified luciferase inhibition in vitro; type: biochemical; settings: for IC50: purified luciferase, room temperature, 10 min; for effect on luciferase activity in vitro: in words, 1E7-03 at concentrations below 100 μM
T1 construct: purchased
T1 sequence (P08659 whole entry): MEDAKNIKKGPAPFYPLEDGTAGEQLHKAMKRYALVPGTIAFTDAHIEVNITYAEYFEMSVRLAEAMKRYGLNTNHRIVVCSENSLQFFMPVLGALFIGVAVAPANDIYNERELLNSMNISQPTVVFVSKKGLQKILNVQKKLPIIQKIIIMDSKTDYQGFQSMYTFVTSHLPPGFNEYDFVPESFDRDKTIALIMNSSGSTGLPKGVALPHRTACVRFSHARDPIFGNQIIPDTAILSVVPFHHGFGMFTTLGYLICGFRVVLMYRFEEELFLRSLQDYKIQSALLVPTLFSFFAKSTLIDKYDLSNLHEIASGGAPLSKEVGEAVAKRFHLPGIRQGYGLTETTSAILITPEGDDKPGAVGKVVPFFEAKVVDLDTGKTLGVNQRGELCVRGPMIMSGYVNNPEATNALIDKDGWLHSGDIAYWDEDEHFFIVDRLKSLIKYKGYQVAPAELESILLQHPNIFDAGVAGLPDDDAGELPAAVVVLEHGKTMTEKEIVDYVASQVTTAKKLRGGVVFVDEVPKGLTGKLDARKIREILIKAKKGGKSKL
Protocol: QuantiLum Recombinant Luciferase (20 ng/ml in PBS) was added into 96-well plate (100 μl/well) and incubated with serial dilutions of the compounds or vehicle (DMSO) under room temperature for 10 min. 100 μl of reconstituted luciferase buffer (Luclite Kit, Perkin Elmer) was added to each well, incubated for another 10 min and luminescence was measured using Glo-Max Microplate Multimode reader (Promega).

[6] = read-out: One round HIV-1 infection IC50, CEM T cells, HIV-1-LUC-G, Figure 4A
[7] = read-out: One round HIV-1 infection IC50, CEM T cells, HIV-1-LUC-G, Figure 7D

Compound | time at which DP1 levels reached their maximum ([1]; 10 μM 1E7-03 in mouse plasma, 37°C) [h] | % of Total (Liver microsomes, Human) [2] [%] | % of Total (Liver microsomes, Mouse) [3] | IC50 [4, 6] [µM] | IC50 [5] [µM] | level of degradation product in mouse plasma ([1]; 10 μM 1E7-03 in mouse plasma, 37°C, up to 24 hrs) | IC50 [4, 7] [µM] | effect on luciferase activity in vitro [5] | stability in mice and mouse plasma ([1]; in words) | % of 1E7-03 degraded ([1]; 37°C, 2 hrs) [%] | % of 1E7-03 degraded ([1]; 37°C, 4 hrs) | % of 1E7-03 degraded and converted into DP1 ([2]; human liver microsomes) [%]
COc1ccc(/C=C2\CCc3c2nc2ccccc2c3C(=O)OC(C)C(=O)O)cc1OC (stereo not shown) [DP1] | 2 | 39.34 | 8.36% | 17 | 37 | – | – | – | – | – | – | –
COc1ccc(/C=C2\CCc3c2nc2ccccc2c3C(=O)O)cc1OC [DP3] | – | 1.27 | 1.03% | > 180 | 7.2 | low levels | – | – | – | – | – | –
COc1ccc(/C=C2\CCCc3c2nc2ccccc2c3C(=O)OC(C)C(=O)OC(C)(C)C)cc1OC (stereo not shown) [DP1-07] | – | – | – | – | – | – | > 66 | did not inhibit | – | – | – | –
CCNC(=O)NC(=O)C(C)OC(=O)c1c2c(nc3ccccc13)/C(=C/c1ccc(OC)c(OC)c1)CC2 (stereo not shown) [1E7-03] | – | 59.39 | 91% and 90.61% | 1.7 | > 180 | – | 2 | no effect | not stable | 40 | over 85% | 39
